The results in this text go back to US20010006673A1, “LUTEIN- CONTAINING SUPPLEMENT AND PROCESS FOR ENHANCING IMMUNE RESPONSE IN ANIMALS” (priority 1998, published 2001).

For one assay, the system named is IgG and IgM. Nature of the assay: Serum IgG and IgM by single radial immunodiffusion, dogs. It counts as in vivo, Beagle dogs. As to the method: Serum collected on weeks 0, 2, 4, 8 and 12 were analyzed for IgG and IgM concentrations by single radial immunodiffusion (SRID). In addition, all dogs were vaccinated with the polyvalent vaccine (Vanguard 5, Smithkline Beacham, West Chester, Pa.) on week 13 and again on week 15 to study the possible anamnestic effect of dietary lutein. Blood was collected weekly from week 13 through week 17. Goat antiserum to canine IgG (10%, whole molecule) or IgM (7.5%, μ chain specific) (ICN, Aurora, Ohio) was mixed with melted agarose (10 g/L in PBS; Sigma Chem. Co., St. Louis, Mo.) and the mixture solidified in SRID plates.
Duplicate 5 μL volumes of serum or IgG (0, 2.88, 5.75, 11.5 and 23.0 mg/ml) or IgM (0, 0.25, 0.5, 1.0 and 2.0 mg/ml) standard were loaded into the wells. After incubating for 24 hours at room temperature in a humidified chamber, ring diameters were measured using a SRID reader (Transidyne General Corp., Ann Arbor, Mich.).

In assay [1] the test system is Canine thyroid adenocarcinoma cells. The assay is described as follows: NK cell cytotoxicity, dogs. It counts as in vivo, Beagle dogs. On the procedure: Canine thyroid adenocarcinoma cells were used as target cells in assessing NK cell cytotoxic activity. This cell line was previously shown to be susceptible to killing by canine NK cell. Target cells were cultured in a T75 flask with 20 mL minimum essential medium (MEM; Sigma Chem. Co., St. Louis, Mo.) supplemented with 10% fetal calf serum (FC S), 100 U/mL of penicillin and 100 μg/mL of streptomycin. When confluent, target cells were trypsinized, washed 3 times and resuspended to 5×10^5 cells/mL in complete medium (RPMI-1640+10% FCS+100 U/mL of penicillin+100 μ/mL of streptomycin). Triplicate 100 μL aliquots of the target cells were pipetted into 96-well U-bottom plates (Costar, Cambridge, Mass.) and incubated for 8 hours to allow cell adherence. Lymphocytes (effector cells; 100 μL) isolated by percoll separation (as described above) were then added to the target cells to provide an effector:target cell (E:T) ratio of 10:1. After 10 hours of incubation at 37° C., 20 μl of a substrate containing 5 μg of 3-(4,5-dimethylthiazol-2-yl)-2,5-diphenyltetrazolium bromide (MTT) was added. […] Optical density was measured at 570 nm using a microplate reader. The percentage of NK cell-specific lysis was calculated as follows: Specific cytotoxicity (%)=100×{1−[(OD of target cells and effector cells−OD of effector cells)/(OD of target cells)]}

The test system of the next assay is malondialdehyde. The assay is described as follows: Lipid peroxidation (TBARS), cat plasma. Type of assay: in vivo, Tabby cats. The conditions noted are these: cats. As to the method: Lipid peroxidation was assessed by the TBARS (thiobarbituric acid-reactive substances) assay on plasma collected on weeks 0, 2, 4, 8 and 12. Duplicate 500 μL of cat plasma was boiled for 45 minutes with 3 mL of phosphoric acid (10 g/L) and 1 mL of TBA (6 g/L). After cooling, the TBA-MDA (malondialdehyde) complex was extracted with 4 mL of n-butanol. The butanol layer was separated by centrifugation (1,000×g for 10 minutes) and absorbance read (Beckman, Fullerton, Calif.) at 532 nm. […] Louis, Mo.).

For assay [2], the system named is lymphocyte subsets (CD3, CD4, CD8, MHC class II, CD21). The assay is described as follows: Lymphocyte subpopulations by flow cytometry, cats. It counts as in vivo, Tabby cats. On the procedure: Blood leukocytes were separated on Histopaque-1119 (Sigma, St. Louis, Mo.) and cells washed three times with phosphate-buffered saline (PBS, pH 7.4). Contaminating RBC were lysed with NH4Cl (8.4 g/L) and cell viability determined by trypan blue exclusion. Lymphocyte subsets were determined by FACScan flow cytometry (Becton Dickinson, San Jose, Calif.) immediately after cell preparation. Isolated PBMC were resuspended to 1×10^7 cells/mL phosphate buffered saline (PBS) supplemented with 2% gamma globulin-free serum, 5% goat serum and 0.2 g/L sodium azide (Baker, Phillipsburg, N.J.). For immunofluorescence analysis, 5×10^5 cells were incubated for 30 minutes on ice with a previously determined optimal concentration of mouse anti-cat primary monoclonal antibody. The antibodies were specific for the following lymphocyte subsets: total T cells (anti-CD3), T-helper cells (anti-CD4), T cytotoxic/suppressor cells (anti-CD8), lymphocytes expressing major histocompatibility complex (MHC) class II antigens (anti-MHC class II), and B cells (anti-CD21). Cells were then washed three times and incubated with a secondary antibody, fluorescein isothiocyanate (FITC)-conjugated goat F(ab′)2 anti-mouse IgG (H+L) (Caltag, Burlingame, Calif.) for 30 minutes on ice to visualize the bound antibody. Stained cells were fixed in 4% paraformaldehyde in preparation for acquisition. Appropriate negative controls were included to correct the level of background fluorescence. Fluorescence analysis was performed on lymphocytes gated by forward and side scatter. Data were expressed as a percentage of positive-staining cells corrected for cells stained nonspecifically with the secondary antibody.
(In flow cytometry, cells or beads pass a laser one at a time.)

The test system of assay [3] is peripheral blood mononuclear cells (PBMC). The assay is described as follows: Peripheral blood mononuclear cell proliferation, whole blood, cats. Type of assay: in vivo, Tabby cats. As to the method:
Whole blood was used to analyze the mitogenic proliferative responsiveness of peripheral blood mononuclear cells (PBMC) to phytohemagglutinin (PHA), Con A and pokeweed mitogen (PWM) in order to mimic in vivo conditions. Heparinized whole blood was diluted 1:12 with RPMI-1640 containing 25 mM of Hepes, penicillin (100 U/mL) and streptomycin (100 μg/mL) (Sigma, St. Louis, Mo.) (hereafter termed complete medium). […] The mitogens were used at the following final concentrations previously determined to provide both maximal (the higher mitogen concentration) and suboptimal (the lower mitogen concentration) proliferation: PHA (1.25 and 0.25 μg/mL), Con A (2.5 and 0.5 μg/mL) or PWM (0.125 and 0.025 μg/mL). Tritiated thymidine uptake was measured by liquid scintillation and PBMC proliferation response was expressed as cpm of stimulated cultures corrected for cpm of unstimulated cultures.

With `CC1=C[C@H](O)CC(C)(C)[C@H]1/C=C/C(C)=C/C=C/C(C)=C/C=C/C=C(C)/C=C/C=C(C)/C=C/C1=C(C)C[C@@H](O)CC1(C)C` [lutein], the “Plasma IgG” value with IgG and IgM (dogs fed 5 mg lutein, week 16, after revaccination on week 15, P<0.05) is recorded as “higher”; with IgG and IgM (dogs fed 20 mg lutein, week 17, after revaccination on week 15) it was “higher”. In the assay with IgG and IgM (dogs, after revaccination), the “Concentration of plasma IgM” value was “not changed”. The “Effect on NK cell cytotoxic activity” value in assay [1] is listed as “did not significantly influence”. The “Specific lysis of target cells by PBMC, average” value in assay [1] (across all treatments and sampling periods, E:T 10:1) is on record as 49.1±1.1%. Also, the “Effect on plasma TBARS activity” value in the assay with malondialdehyde is on record as “did not significantly influence”. For the same compound, the “Plasma TBARS, average” value in the assay with malondialdehyde (across all diet groups and periods) came to 20.3±0.2 nmol MDA/L. In assay [2] (cats), the “Total number of T cells (CD3)” value was “did not influence significantly”. Also, the “Percentage of CD21+ B cells” value in assay [2] (cats fed 10 mg lutein, week 12) is given as “significantly elevated”. In assay [2] (cats, any of the time periods), the “Percentage of CD8+ T cytotoxic cells” value was “not influenced significantly”. In addition, the “Percentage of MHC class II+ cells” value in assay [2] (cats, any of the time periods) is “not influenced significantly”. The “Ratio of CD4:CD8” value in assay [2] (cats, any of the time periods) is recorded as “not influenced significantly”. Besides, the “Spontaneous proliferation by unstimulated PBMC” value in assay [3] (cats) was “did not significantly influence”. The “PWM-stimulated PBMC proliferation (increased)” value in assay [3] (cats fed 1 mg lutein, week 4, 0.025 μg/mL PWM) was “differences were significant”; in assay [3] (cats fed 1 and 10 mg lutein, week 4, 0.125 μg/mL PWM), “differences were significant”. Also, the “PBMC proliferative response to Con A” value in assay [3] (cats fed 10 mg lutein, Con A 2.5 μg/mL, week 4) was “significantly higher”; in assay [3] (cats, Con A 2.5 μg/mL, week 8 and 12) it was “treatment differences were not observed”; in assay [3] (cats, suboptimal dose (0.5 μg/mL) of Con A), “No significant treatment difference”. For the same compound, the “Tritiated thymidine uptake, average” value in assay [3] (cats, 0.25 μg/mL PHA) was 1,934±147 cpm; in assay [3] (cats, 1.25 μg/mL PHA), 6,464±504 cpm. Further, in assay [3] (cats, throughout the study), the “PHA-induced PBMC proliferation” value is recorded as “no significant dietary effects”. Further, the “Spontaneous proliferation by unstimulated PBMC, average” value in assay [3] (cats, throughout the study) was 1,744±147 cpm.
